Data from patent publication US20170119742A1, “MEDICAMENT FOR PREVENTING AND/OR TREATING STRESS DISEASES” (ONO PHARMACEUTICAL CO., LTD., priority 2014, published 2017).

Key:
[1] = tested on: brain TSPO; test: Ex vivo brain TSPO occupancy in monkeys, [3H] PBR28; settings: rhesus monkey, once on day 4, 2 h after final dose
Protocol: (§1) The vehicle (0.5 w/v % methylcellulose 400 cP solution) or the compound of the present invention (0.4 or 1 mg/kg) was orally administered twice daily for 3 days, once on day 4 to male rhesus monkeys (Shin Nippon Biomedical Laboratories, Ltd., at the time of use: 4 to 6 kg). After 2 hours of the final administration, in the same manner as Biological example 1, brain TSPO occupancy of the compound of the present invention relative to the specific binding of the vehicle control group was measured by measuring the specific binding amount of [3H] PBR28 on brain (anterior cingulate cortex, caudate nucleus, amygdala, hippocampus and occipital lobe) homogenates (n=3 in vehicle control group, n=5 in each the compound of the present invention treated group). As a result, the average TSPO occupancy of brain 5 sites was 37.9 and 56.6% in 0.4 and 1 mg/kg group of the compound of the present invention. The average plasma concentration of the compound of the present invention was 23.9 and 154 ng/mL in 0.4 and 1 mg/kg group.

[2] = Plasma concentration in monkeys (ex vivo occupancy study); settings: male, rhesus monkey, once on day 4
Protocol: as §1

[3] = biological target: T1, brain TSPO (Homo sapiens, UniProt P30536); test: Prediction of brain TSPO occupancy in steady state, once daily in humans (Biological example 9); settings: trough concentration
T1 construct: from tissue; host or cells: living human brain (PET, healthy adults)
T1 sequence (P30536 whole entry): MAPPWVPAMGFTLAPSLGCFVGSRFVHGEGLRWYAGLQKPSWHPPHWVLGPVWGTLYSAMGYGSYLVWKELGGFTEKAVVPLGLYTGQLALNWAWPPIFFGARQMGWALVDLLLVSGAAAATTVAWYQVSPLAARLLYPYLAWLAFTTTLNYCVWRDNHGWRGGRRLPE
Source text: A transition in the plasma concentration of the compound of the present invention, in a steady state when administered once daily, was predicted.

[4] = biological target: T1, brain TSPO; test: Brain occupancy using PET in humans (2), different analytical method, Bmax fixed to 1; type: in vivo; settings: [11C] PBR28, Emax model with Bmax fixed to 1, mean plasma concentration, SAS, read-out: Ki, blood concentration which can be achieved 50% Bmax (converted)
Protocol: The data in Biological example 8 were analyzed in a different analytical method. Brain occupancy, relative to the binding potential (BP) before administration, was calculated by calculating the BP of each interest area from the brain radioactivity concentration time change of [^11C] PBR28, nonspecific binding amount and arterial blood plasma radioactivity which was corrected in a non-metabolic rate (n=3 to 4 in each group). Further, the average TSPO occupancy of all interest areas was determined from the Lassen plot that obtained by the horizontal axis of the distribution volume before administration (Vt baseline) and the vertical axis of the value obtained by subtracting the distribution volume after administration from the distribution volume before the administration (Vt baseline−Vt onmed) for each interest area. […] As parameters in this model, Bmax (a maximum number of binding) and Ki (ng/mL) (a blood concentration which can be achieved 50% Bmax) were used. Bmax was fixed to 1 in this analysis, and SAS Version 9.2 (SAS Institute) was used as an analysis software. Parameters and formula of Emax model were shown in the following.
TSPO Occupancy (%)=Bmax×Cave/(Ki+Cave)×100
Cave=Mean plasma concentration (ng/mL)

[5] = tested on: female diarrhea-type IBS patients; test: PSS (Perceived Stress Scale) in the clinical trial of Biological example 10; type: in vivo, human; settings: 60 mg treatment
Protocol: In the clinical trial of Biological example 10, the therapeutic effect of the compound of the present invention 60 mg treatment on depression and anxiety-related diseases were evaluated using PSS (Perceived Stress Scale) (refer to Journal of Health and Social Behavior, 24, 386-396, 1983), HAM-A (Hamilton Anxiety Scale) (refer to The British journal of medical psychology, 32, 50-55, 1959) and HAM-D (Hamilton Depression scale) (refer to Journal of Neurology, Neurosurgery and Psychiatry, 23, 56-62, 1960) as rating scales.

[6] = biological target: T1, brain TSPO; test: Brain occupancy using PET in humans (1), [11C] PBR28, Emax model; type: in vivo
Protocol: Male and female healthy adults were used. The compound of the present invention (6 to 200 mg) was once orally administered. Before and after 24 hours of the administration, a PET measurement using [^11C] PBR28 was performed in the following manner.
Measurement equipment: PET; ECAT HR+(Siemens) Measurement methods: 90 minutes blank measurement and 10 to 15 minutes transmission measurement were performed using 68Ge/68Ga calibration source. Next, [^11C] PBR28 was intravenously bolus administrated over a period of about 30 seconds. Emission measurement (total 90 minutes, 26 frames) was started together with the administration while an arterial blood sampling for measuring the plasma concentration.
Brain occupancy, relative to the binding potential (BP) before the administration, was calculated by calculating the BP of each interest area from the brain radioactivity concentration time change of [^11C] PBR28, nonspecific binding amount and arterial blood plasma radioactivity which was corrected in a non-metabolic rate (n=3 to 4 in each group). Further, the average TSPO occupancy of all interest areas was determined from the Lassen plot that obtained by the horizontal axis of the distribution volume before administration and the vertical axis of the value obtained by subtracting the distribution volume after administration from the distribution volume before the administration for each interest area. […] As parameters in this model, Emax (a maximal effect) and EC50 (ng/mL) (a blood concentration which can be achieved 50% Emax) were used. An analysis software NONMEM7.1.2 (ICON Development Solutions) was used in this analysis. Parameters and formula of Emax model were shown in the following.
TSPO Occupancy (%)=(θ1×X)/(θ2+X)
X=Plasma concentration (ng/mL)

[7] = 0.4 mg/kg oral twice daily 3 days
[8] = 1 mg/kg oral twice daily 3 days

With `COc1cc(Cl)ccc1[C@H]1c2[nH]c3cccc(F)c3c2C2(CC2)CN1C(C)=O` [the compound of the present invention, (1S)-2-acetyl-1-(4-chloro-2-methoxyphenyl)-5-fluoro-1,2,3,9-tetrahydrospiro[β-carboline-4,1′-cyclopropane]] the “average TSPO occupancy of brain 5 sites” value [1, 7] was 37.9%, the “average TSPO occupancy of brain 5 sites” value [1, 8] was 56.6% and the concentration at 2 h [2, 7] was 23.9 ng/mL. The concentration at 2 h [2, 8] was 154 ng/mL, the “TSPO Occupancy (%) Predicted 5 percentile” value ([3]; dose 5 mg) was 42.8% and the “TSPO Occupancy (%) Predicted 95 percentile” value ([3]; dose 5 mg) was 70.3%. The “TSPO Occupancy (%) Predicted median” value ([3]; dose 5 mg) was 57.4%, the “TSPO Occupancy (%) Predicted 5 percentile” value ([3]; dose 10 mg) was 59.8% and the “TSPO Occupancy (%) Predicted 95 percentile” value ([3]; dose 10 mg) was 82.3%. The “TSPO Occupancy (%) Predicted median” value ([3]; dose 10 mg) was 73.1%, the “TSPO Occupancy (%) Predicted 5 percentile” value ([3]; dose 20 mg) was 74.6% and the “TSPO Occupancy (%) Predicted 95 percentile” value ([3]; dose 20 mg) was 90.5%. The “TSPO Occupancy (%) Predicted median” value ([3]; dose 20 mg) was 84.4%, the “TSPO Occupancy (%) Predicted 5 percentile” value ([3]; dose 30 mg) was 81.6% and the “TSPO Occupancy (%) Predicted 95 percentile” value ([3]; dose 30 mg) was 93.4%. The “TSPO Occupancy (%) Predicted median” value ([3]; dose 30 mg) was 89.0%, the “TSPO Occupancy (%) Predicted 5 percentile” value ([3]; dose 60 mg) was 90.0% and the “TSPO Occupancy (%) Predicted 95 percentile” value ([3]; dose 60 mg) was 96.7%. For the same compound, the “TSPO Occupancy (%) Predicted median” value ([3]; dose 60 mg) was 94.2%, the “TSPO Occupancy (%) Predicted 5 percentile” value ([3]; dose 100 mg) was 95.3% and the “TSPO Occupancy (%) Predicted 95 percentile” value ([3]; dose 100 mg) was 98.4%. For the same compound, the “TSPO Occupancy (%) Predicted median” value ([3]; dose 100 mg) was 97.4%, the Ki [4] was 34.1 nM and the “PSS score, 4th week” value ([5]; Patient A, baseline 35) was 19. The “PSS score, Amount of change from baseline” value (from here on “PSS score, Amount of change”) ([5]; Patient A, baseline 35, 4th week) was −16, the “PSS score, 4th week” value ([5]; Patient B, baseline 23) was 13 and the “PSS score, Amount of change” value ([5]; Patient B, baseline 23, 4th week) was −10. The “PSS score, 4th week” value ([5]; Patient C, baseline 18) was 6, the “PSS score, Amount of change” value ([5]; Patient C, baseline 18, 4th week) was −12 and the “plasma concentration that makes brain TSPO occupancy reach about 50%” value ([6]; Emax model) was “about 15 ng/mL”. The “plasma concentration that makes brain TSPO occupancy reach about 85%” value ([6]; Emax model) was “about 150 ng/mL”, the “θ1 (=Emax), maximal effect of Emax model of TSPO occupancy” value ([6]; [11C] PBR28, 6 to 200 mg single oral dose, NONMEM, in % (unit assumed)) was 92.8±3.59 and the EC50 ([6]; [11C] PBR28, 6 to 200 mg single oral dose, NONMEM, read-out: θ2 (=EC50), blood concentration which can be achieved 50% Emax (converted)) was 34.3 nM.
